Test results published in US10993957B2 (NuCana plc, priority 2011, dated 2021).
Where two headings read alike, the source gives them in different places.

Legend:
[1] = test system: L1210/0; assay: Cytostatic assay, L1210/0 cells; type: cell-based, murine; details: for IC50: read-out: IC50 L1210/0
Excerpt: (§1) The cell lines employed were L1210/0 (a leukemia cell line), FM3A/0 (a breast cancer cell line), Cem/0 (an acute lymphoblastic leukemia cell line) and HeLa (a cervical cell line).

[2] = test system: L1210/TK^−; assay: Cytostatic assay, thymidine kinase-deficient L1210/TK^− cells; type: cell-based, murine; details: for IC50: Table 6, read-out: IC50 L1210/TK^−; for CC50: L1210, Table 1, read-out: CC50 L1210/TK^−
[3] = test system: Cem/0; assay: Cytostatic assay, CEM/0 cells; type: cell-based, human; details: for IC50: Table 6, read-out: IC50 Cem/0; for CC50: Table 1, read-out: CC50 Cem/0
Excerpt: as §1

[4] = test system: Cem/TK^−; assay: Cytostatic assay, thymidine kinase-deficient CEM/TK^− cells; type: cell-based, human; details: for IC50: Table 6, read-out: IC50 Cem/TK^−; for CC50: Table 1, read-out: CC50 Cem/TK^−
[5] = test system: HeLa; assay: Cytostatic assay, HeLa cells; type: cell-based; details: for IC50: Table 6, read-out: IC50 HeLa; for CC50: Table 1, read-out: CC50 HeLa
Excerpt: as §1

[6] = test system: HeLa/TK^−; assay: Cytostatic assay, HeLa/TK^− cells; type: cell-based; details: for IC50: Table 6, read-out: IC50 HeLa/TK^−; for CC50: Table 1, read-out: CC50 HeLa/TK^−
Excerpt: as §1

[7] = test system: L1210.Hyor; assay: Cytostatic assay, Mycoplasma hyorhinis-infected L1210 cells; details: for % Retention: CC50 L1210 × 100 ÷ CC50 L1210/Hyor
Excerpt: Murine leukaemia L1210/0 and human T-lymphocyte CEM/0 cells were obtained from the American Type Culture Collection (ATCC) (Rockville, Md.). Human glioblastoma U87 cells were kindly provided by Dr. E. Menue (Institut Pasteur, Paris, France). […] S. Eriksson (currently at Uppsala University, Uppsala, Sweden) and Prof A. Karlsson (Karolinska Institute, Stockholm, Sweden). […] All cells were maintained in Dulbecco's modified Eagle's medium (DMEM) (Invitrogen, Carlsbad, Calif.) with 10% foetal bovine serum (FBS) (Biochrom AG, Berlin, Germany), 10 mM Hepes and 1 mM Sodium Pyruvate (Invitrogen). Cells were grown at 37° C. in a humidified incubator with a gas phase of 5% CO2.
Monolayer cells (U87 and U87.Hyor) were seeded in 48-well microtiter plates (Nunc™, Roskilde, Denmark) at 10,000 cells/well. After 24 hours, an equal volume of fresh medium containing the test compounds was added. On day 5, cells were trypsinized and counted in a Coulter counter (Analis, Suarlée, Belgium). Suspension cells (L1210/0, L1210/TK^−, L1210.Hyor, CEM/0, CEM/TK^−) were seeded in 96-well microtiter plates (Nunc™) at 60,000 cells/well in the presence of a given amount of the test compounds. The cells were allowed to proliferate for 48 h (L1210) or 72 hours (CEM) and were then counted in a Coulter counter.
Samples were also assayed for their % retention of activity in mycoplasma infected cells.
The L1210/0 cell cultures were infected with the mycoplasma species M. hyorhinis (cells designated: L1210.Hyor).

[8] = read-out: IC50 L1210.Hyor, Table 7
[9] = Mus musculus, L1210/0, Table 1, read-out: CC50 L1210/0
[10] = Mus musculus, L1210/0, Table 2, mycoplasma negative cells, read-out: CC50 L1210
[11] = Mus musculus, L1210, read-out: CC50 L1210/Hyor
[12] = Mus musculus, L1210, read-out: IC50 L1210.Hyor

Row | SMILES | IC50 ([1]; Table 6) | IC50 ([1]; Table 7) | IC50 [2] | IC50 [3] | IC50 [4] | IC50 [5] | IC50 [6] | % Retention [7] | IC50(L1210.Hyor)/IC50(L1210/0) ([7]; Table 7) | IC50 [7, 8] | CC50 [1, 9] | IC50 ([1]; Mus musculus, L1210/0, Table 6) | IC50 ([1]; Mus musculus, L1210/0, Table 7) | CC50 ([2]; Mus musculus) | IC50 ([2]; Mus musculus, L1210) | IC50 ([3]; Homo sapiens, CCRF-CEM) | IC50 ([4]; Homo sapiens, CEM-TK(-)) | IC50 ([5]; Homo sapiens, HeLa) | IC50 ([6]; Homo sapiens, HeLa) | IC50 [7, 12] | other results
1 | CC(C)C(NP(=O)(OCC1OC(n2cc(F)c(=O)[nH]c2=O)CC1O)Oc1cccc2ccccc12)C(=O)OC1CCCCC1 (stereo not shown) [CPF 576] | 1100 ± 500 nM | 1200 ± 170 nM | 35000 ± 8000 nM | 800 ± 280 nM | 46000 ± 14000 nM | 670 ± 30 nM | 27000 ± 6000 nM | 51% | 1.08 | 1290 ± 290 nM |  |  |  |  |  |  |  |  |  |  | CC50 ([1]; Table 2, mycoplasma negative cells, read-out: CC50 L1210): 1400 nM; CC50 ([7]; read-out: CC50 L1210/Hyor, Table 2, mycoplasma positive cells): 2730 nM
2 | C[C@H](NP(=O)(OC[C@H]1O[C@@H](n2cc(F)c(=O)[nH]c2=O)CC1O)Oc1cccc2ccccc12)C(=O)OCCC(C)(C)C (stereo partly drawn) [CPF 585, 5-Fluoro-2′-deoxyuridine-5′-O-[1-naphthyl(3,3-dimethyl-1-butoxy-L-alaninyl)] phosphate] |  |  |  |  |  |  |  | 41% | 2.7 |  | 16 ± 6 nM | 16 ± 6 nM | 12 ± 1.8 nM | 62 ± 9 nM | 62 ± 9 nM | 53 ± 21 nM | 190 ± 40 nM | 78 ± 18 nM | 1300 ± 900 nM | 32 ± 8.8 nM | CC50 [1, 10]: 21 nM; CC50 ([3]; Homo sapiens, CCRF-CEM): 53 ± 21 nM; CC50 ([4]; Homo sapiens, CEM-TK(-)): 190 ± 40 nM; CC50 ([5]; Homo sapiens, HeLa): 78 ± 18 nM; CC50 ([6]; Homo sapiens, HeLa): 1300 ± 900 nM; CC50 [7, 11]: 51 nM
3 | COC(=O)[C@H](C)NP(=O)(OC[C@H]1O[C@@H](n2cc(F)c(=O)[nH]c2=O)CC1O)Oc1ccccc1 (stereo partly drawn) [CPF 382, 5-Fluoro-2′-deoxyuridine-5′-O-[phenyl(methoxy-L-alaninyl)] phosphate, reference compound] |  |  |  |  |  |  |  |  | 22 |  | 25.5 nM | 22 ± 7 nM | 40 ± 16 nM | 37800 nM | 41000 ± 3000 nM | 700 ± 370 nM | 35000 ± 12000 nM | 280 ± 140 nM | 4700 ± 400 nM | 870 ± 280 nM | CC50 ([3]; Homo sapiens, CCRF-CEM): 346 nM; CC50 ([4]; Homo sapiens, CEM-TK(-)): 32700 nM
4 | CC(C)CC(NP(=O)(OCC1OC(n2cc(F)c(=O)[nH]c2=O)CC1O)Oc1cccc2ccccc12)C(=O)OCc1ccccc1 (stereo not shown) [Nap Bn Leu] | 28 ± 4 nM | 29 ± 2.1 nM | 1500 ± 600 nM | 130 nM | 30000 ± 6000 nM | 80 ± 22 nM | 9400 ± 1400 nM |  | 1.7 | 48 ± 20 nM |  |  |  |  |  |  |  |  |  |  | 
5 | C[C@H](NP(=O)(OC[C@H]1O[C@@H](n2cc(F)c(=O)[nH]c2=O)CC1O)Oc1cccc2ccccc12)C(=O)OC1CCOCC1 (stereo partly drawn) [CPF 580, 5-Fluoro-2′-deoxyuridine-5′-O-[1-naphthyl-(tetrahydropyroxy-L-alaninyl)]phosphate] |  |  |  |  |  |  |  | 12% | 11.7 |  | 38 ± 14 nM | 38 ± 14 nM | 41 ± 2.8 nM | 27000 ± 6000 nM | 27000 ± 6000 nM | 110 ± 20 nM | 43000 ± 12000 nM | 130 ± 40 nM | 15000 ± 7000 nM | 480 ± 110 nM | CC50 [1, 10]: 48 nM; CC50 ([3]; Homo sapiens, CCRF-CEM): 110 ± 20 nM; CC50 ([4]; Homo sapiens, CEM-TK(-)): 43000 ± 12000 nM; CC50 ([5]; Homo sapiens, HeLa): 130 ± 40 nM; CC50 ([6]; Homo sapiens, HeLa): 15000 ± 7000 nM; CC50 [7, 11]: 410 nM
6 | CCC(C)C(NP(=O)(OCC1OC(n2cc(F)c(=O)[nH]c2=O)CC1O)Oc1ccccc1)C(=O)OCc1ccccc1 (mixture of isomers) [Ph Bn Ile] | 76 ± 22 nM | 980 ± 390 nM | 1100 ± 100 nM | 1000 ± 100 nM | 30000 ± 10000 nM | 710 ± 150 nM | 25000 ± 11000 nM |  | 2.2 | 2200 ± 31 nM |  |  |  |  |  |  |  |  |  |  | 
7 | O=C(OCc1ccccc1)[C@H](Cc1ccccc1)NP(=O)(OC[C@H]1O[C@@H](n2cc(F)c(=O)[nH]c2=O)CC1O)Oc1cccc2ccccc12 (stereo partly drawn) [CPF 587, 5-Fluoro-2′-deoxyuridine-5′-O-[1-naphthyl-(benzoxy-L-phenylalaninyl)]phosphate] |  |  |  |  |  |  |  | 0.5% | 11 |  | 12 ± 7 nM | 12 ± 7 nM | 21 ± 6.1 nM | 5600 ± 1300 nM | 5600 ± 1300 nM | 100 ± 30 nM | 7200 ± 100 nM | 160 ± 80 nM | 6800 ± 1500 nM | 230 ± 78 nM | CC50 [1, 10]: 22 nM; CC50 ([3]; Homo sapiens, CCRF-CEM): 100 ± 30 nM; CC50 ([4]; Homo sapiens, CEM-TK(-)): 7200 ± 100 nM; CC50 ([5]; Homo sapiens, HeLa): 160 ± 80 nM; CC50 ([6]; Homo sapiens, HeLa): 6800 ± 1500 nM; CC50 [7, 11]: 4200 nM
8 | CSCCC(NP(=O)(OCC1OC(n2cc(F)c(=O)[nH]c2=O)CC1O)Oc1cccc2ccccc12)C(=O)OCc1ccccc1 (stereo not shown) [Nap Bn Met] | 72 ± 1 nM | 54 ± 13 nM | 1900 ± 200 nM | 190 ± 100 nM | 11000 ± 1000 nM | 87 ± 17 nM | 8300 nM |  | 3.7 | 200 ± 98 nM |  |  |  |  |  |  |  |  |  |  | 
9 | CCOC(=O)C(NP(=O)(OCC1OC(n2cc(F)c(=O)[nH]c2=O)CC1O)Oc1ccccc1)C(C)C (stereo not shown) [Ph Et Val] | 160 ± 50 nM | 200 ± 33 nM | 42000 ± 2000 nM | 1000 ± 100 nM | > 250000 nM | 1200 ± 300 nM | 27000 ± 7000 nM |  | 22 | 4400 ± 1100 nM |  |  |  |  |  |  |  |  |  |  | 
10 | C[C@H](NP(=O)(OC[C@H]1O[C@@H](n2cc(F)c(=O)[nH]c2=O)CC1O)Oc1cccc2ccccc12)C(=O)OC1Cc2ccccc2C1 (stereo partly drawn) [CPF597, 5-Fluoro-2′-deoxyuridine-5′-O-[1-naphthyl-(2-indanoxy-L-alaninyl)]phosphate] |  |  |  |  |  |  |  |  | 1.08 |  |  | 21 ± 2 nM | 39 ± 19 nM |  | 40000 nM | 79 ± 18 nM | 1000 ± 200 nM | 100 ± 60 nM | 7100 ± 2100 nM | 42 ± 40 nM | 
11 | CCCCCOC(=O)C(Cc1ccccc1)NP(=O)(OCC1OC(n2cc(F)c(=O)[nH]c2=O)CC1O)Oc1cccc2ccccc12 (mixture of isomers) [Nap Pnt Phe] | 26 ± 1 nM | 30 ± 3.9 nM | 2900 ± 1200 nM | 100 nM | 8300 ± 1000 nM | 40 nM | 6600 ± 500 nM |  | 4.67 | 140 ± 7 nM |  |  |  |  |  |  |  |  |  |  | 
